Source: PubChem BioAssay (NCI)
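These data come from cells grown in 96-well plates and exposed to compound for 48 hours at five concentrations. Abbreviation: GI50, concentration required for 50% inhibition of growth. TGI is the concentration that stops growth completely.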

Experiments:
Experiment in all cases: NCI-60 cell line screen, 48 h
SNB-19 CNS = tested on: SNB-19 CNS
OVCAR-8 ovarian = tested on: OVCAR-8 ovarian
EKVX NSCLC = tested on: EKVX NSCLC
CCRF-CEM leukemia = tested on: CCRF-CEM leukemia
SK-MEL-5 melanoma = tested on: SK-MEL-5 melanoma
MCF7 breast = tested on: MCF7 breast
DU-145 prostate = tested on: DU-145 prostate
NCI-H522 lung = tested on: NCI-H522 lung
OVCAR-5 ovarian = tested on: OVCAR-5 ovarian
NCI-H23 lung = tested on: NCI-H23 lung

Structure (SMILES)	TGI (SNB-19 CNS) [µM]	TGI (OVCAR-8 ovarian) [µM]	TGI (EKVX NSCLC) [µM]	TGI (CCRF-CEM leukemia) [µM]	TGI (SK-MEL-5 melanoma) [µM]	TGI (MCF7 breast) [µM]	TGI (DU-145 prostate) [µM]	TGI (NCI-H522 lung) [µM]	TGI (OVCAR-5 ovarian) [µM]	TGI (NCI-H23 lung) [µM]	GI50 (SNB-19 CNS) [µM]	GI50 (OVCAR-8 ovarian) [µM]	GI50 (EKVX NSCLC) [µM]	GI50 (CCRF-CEM leukemia) [µM]	GI50 (SK-MEL-5 melanoma) [µM]	GI50 (MCF7 breast) [µM]	GI50 (DU-145 prostate) [µM]	GI50 (NCI-H522 lung) [µM]	GI50 (OVCAR-5 ovarian) [µM]	GI50 (NCI-H23 lung) [µM]
COc1ccc(N=C2C(=S)N(c3ccc(OC)cc3)/C(=N/S(=O)(=O)c3ccccc3)N2c2ccccc2)cc1	> 61	5.47	31.8	> 100	11.1	35.8	> 48.8	4.24	32	29	–	–	–	–	–	–	–	–	–	–
CC1C(c2ccc3c(c2)OCO3)c2cc3c(cc2OC1N1CCOCC1)OCO3 (stereo not given)	86.5	> 100	> 100	73.3	42.7	65.8	> 100	31.1	> 100	> 100	–	–	–	–	–	–	–	–	–	–
N#CCCN(CCC#N)c1ccc(/C=C2\SC(=S)NC2=O)cc1Br	56.3	> 100	> 100	> 100	> 100	> 100	> 100	> 100	> 100	> 100	–	–	–	–	–	–	–	–	–	–
Cn1ccnc1Sc1ccc(C=Nc2ccc3nc(SCC(=O)NC4CCCCC4)sc3c2)cc1[N+](=O)[O-]	55.9	> 100	> 100	> 100	> 100	> 100	> 100	> 100	> 100	> 100	–	–	–	–	–	–	–	–	–	–
Nc1ccc2nc3n(c2c1)C(=O)c1ccccc1-3	> 100	> 100	> 100	> 100	> 100	> 100	> 100	> 100	> 100	> 100	–	–	–	–	–	–	–	–	–	–
COc1ccc(-c2csc(NC(=O)CSc3nc(C)c(-c4ccccc4)n3Nc3ccccc3)n2)cc1	> 100	> 100	> 100	> 100	> 100	> 100	> 100	> 100	> 100	> 100	> 100	3.48	3.8	3.92	4.45	8.25	18	3.35	> 100	4.96
CC12CC1C(c1cccc([N+](=O)[O-])c1)(c1cccc([N+](=O)[O-])c1)N=N2 (stereo not given)	> 100	74.4	> 100	43.9	> 100	> 100	> 100	23.2	> 100	51.5	–	–	–	–	–	–	–	–	–	–
COc1cc([C@@H]2c3cc4c(cc3[C@@H](c3c(O)cc(O)c5c3O[C@H](c3ccc(O)c(O)c3)[C@@H](O)C5)[C@H]3COC(=O)[C@H]23)OCO4)cc(OC)c1O	> 100	> 100	> 100	> 100	> 100	> 100	> 100	> 100	> 100	> 100	–	–	–	–	–	–	–	–	–	–
COc1ccc(N=NC(=Nc2ccc(F)cc2)c2ccc(N(CCC#N)CCC#N)cc2)cc1	> 100	> 100	> 100	> 100	> 100	> 100	> 100	47	> 100	65.6	–	–	–	–	–	–	–	–	–	–
